Results on seven molecules are retold here after PMC9693223 (Molecules, 2022).

Where two headings read alike, the source gives them in different places.

Series [1] deals with T1, TcrNT2 (Trypanosoma cruzi, UniProt Q4DHG0). As to the kind of experiment: Transport of [^3H]-thymidine by TcrNT2 expressed in L. mexicana Cas9^ΔNT1 (Km, inhibition). It counts as cell-based. The protocol:
(§1) These values can be used to calculate the Gibbs free energy of interaction ΔG°, but these experiments cannot distinguish between the test compound being transported or merely binding to the transporter and inhibiting the transit of the [^3H]-thymidine.
Transport assays were conducted with radiolabeled nucleosides [methyl-^3H]-thymidine (20 Ci/mmol; PerkinElmer (Waltham, MA, USA)) and [2,8-^3H]-adenosine (40 Ci/mmol; American Radiolabeled Chemicals (ARC, St-Louis, MO, USA)). Cells were harvested from mid-log phase cultures by centrifugation and washed into an assay buffer (AB) as described, at a density of 1 × 10^8 cells mL^−1. Transport assays were then performed exactly as described previously, using an oil-stop protocol. Briefly, 100 µL of cell suspension (10^7 cells) was mixed with 100 µL of [^3H]-substrate at 2 × final concentration and incubated for a pre-set time prior to the addition of 800 µL of ice-cold AB containing a saturating concentration of unlabeled permeant (usually 1 or 2.5 mM) and immediate centrifugation through an oil layer to separate cells from extracellular radiolabel. The 100 µL of [^3H]-substrate could also contain unlabeled substrate or an inhibitor at 2 × concentration, as appropriate. Next, the microfuge tubes were flash frozen in liquid nitrogen; the tips with the cell pellets cut off and collected in scintillation tubes. Cells were solubilized by incubation in 2% SDS under gentle shaking on a rocking platform prior to the addition of scintillation fluid (Scintilogic U, Lablogic, Sheffield, UK). The tubes stored in the dark overnight before counting in a 300SL Hidex Scintillation Counter (Lablogic).
Michaelis-Menten constants (Km) were calculated by plotting transport rates of [^3H]-substrate against the concentration, using the Michaelis-Menten equation V0 = Vmax([substrate]/([substrate] + Km)) and non-linear regression in GraphPad Prism 8. Inhibition constants (Ki) were calculated using the Cheng-Prusoff equation: Ki = IC50/(1 + (L/Km)), where L represents the radiolabel concentration. The IC50 was obtained by a non-linear regression of the inhibition curve of transport rate versus inhibitor concentration, using an equation for a sigmoid curve with variable slope (GraphPad Prism 8). The Gibbs free energy ΔG° was obtained using the equation ΔG° = −RTln(Ki), in which R is the gas constant and T is the absolute temperature. As discussed previously, these equations apply to competitive rather than non-competitive inhibition. Given that only close analogues of the substrate were used as potential inhibitors and that Hill slopes were consistently close to −1, it is very likely that inhibition was indeed competitive.

Series [2] relates to L. mexicana Cas9 promastigotes. The arrangement: method as in de Almeida Fiuza et al. [41]. The settings on record: starred values, ref de Almeida Fiuza et al. [41], read-out: EC50 (µM) AVG ± SEM, Cas9; cited from earlier work.
The subject of series [3] is intracellular T. cruzi amastigotes. The settings on record: ref [16], cited from earlier work.
Series [4] has as its system L. mexicana Cas9 promastigotes. As to the kind of experiment: Alamar blue drug sensitivity assay, L. mexicana Cas9 promastigotes. In kind it is cell-based, Leishmania mexicana. The settings on record: 72 h + 48 h resazurin, at least 3 independent determinations; for EC50: read-out: EC50 (µM) AVG ± SEM, Cas9. From the text:
(§2) We used L. mexicana promastigotes of the Cas9 strain developed by Beneke at al. to generate the ΔNT1 strain, and from there the Cas9^ΔNT1+TcrNT2 (see below); The original Cas9 strain was generously donated by Prof. Eva Gluenz (University of Bern, Switzerland). All strains in standard HOMEM (GIBCO, Life Technologies, Paisley, UK) supplemented with 10% heat-inactivated fetal bovine serum (FBS; PAA Laboratories, Linz, Austria) and 1% of a penicillin–streptomycin solution (10,000 U mL^−1 each; Life Technologies) at 25 °C, as described.
(§3) The Alamar blue assay (resazurin sodium salt) was used to determine the drug sensitivity of the L. mexicana promastigotes in vitro. The assay is based on the reduction of resazurin sodium salt (blue and non-fluorescent) to resorufin (pink color and fluorescent) by live cells. HOMEM medium with 10% FBS (100 μL) was added to all wells of a white 96-well plate apart from the first well. 200 μL of a known concentration of test compounds was diluted in HOMEM medium and placed in the first well. Compounds were tested in one plate and every compound was diluted over two rows (23 concentrations), leaving the last well of every dilution as a negative control having 100 μL HOMEM medium. Next, 100 μL of L. mexicana culture at a density of 2 × 10^6 cells mL^−1 was added into every well in the plate and incubated for 72 h at a temperature of 25 °C after which resazurin sodium salt (Sigma) (20 μL of a solution of 12.5 mg in 100 mL PBS) was added and the plate was incubated under the same conditions for a further 48 h. Fluorescence was measured in a FLUOstar OPTIMA plate reader (BMG Labtech, Germany), at a wavelength of 544 nm for excitation and 620 nm for emission. The EC50 values and fluorescence data were determined and plotted by the GraphPad Prism 8 Software using an equation for a sigmoid curve with variable slope. Pentamidine was used as positive control and every experiment was performed 3–4 times independently.

The target of series [5] is T1, TcrNT2. As to conditions: ref Campagnaro et al. [30], cited from earlier work; for Ki: earlier characterization, TcrNT2 expressed in T. brucei, read-out: Ki on thymidine transport by TcrNT2.
The subject of series [6] is L. mexicana Cas9^ΔNT1 promastigotes. The arrangement: method as in de Almeida Fiuza et al. [41]. The settings on record: starred values, ref de Almeida Fiuza et al. [41], cited from earlier work; for EC50: L. mexicana Cas9^ΔNT1 promastigotes, read-out: EC50 (µM) AVG ± SEM, L. mexicana Cas9^ΔNT1.
Series [7] deals with L. mexicana Cas9^ΔNT1+TcrNT2 promastigotes. The arrangement: method as in de Almeida Fiuza et al. [41]. The settings on record: L. mexicana Cas9^ΔNT1+TcrNT2 promastigotes; starred values; ref de Almeida Fiuza et al. [41]; read-out: EC50 (µM) AVG ± SEM, L. mexicana Cas9^ΔNT1+TcrNT2; cited from earlier work.
Series [8] has as its system NT1 transport activity. Also noted: method as in PMID 28453984. As to conditions: NT1 transport activity in L. mexicana; ref [36]; cited from earlier work.
In series [9] the test system is L. mexicana Cas9^ΔNT1+TcrNT2 promastigotes. Nature of the series: Alamar blue drug sensitivity assay, L. mexicana Cas9^ΔNT1+TcrNT2 promastigotes. It counts as cell-based, Leishmania mexicana. The settings on record: L. mexicana Cas9^ΔNT1+TcrNT2 promastigotes, 72 h + 48 h resazurin.
Excerpt: as §2, §3
In general terms: Alamar Blue is a resazurin reagent that responds to reducing activity.

For series [10], the system named is L. mexicana Cas9^ΔNT1 promastigotes. As to the kind of experiment: Alamar blue drug sensitivity assay, L. mexicana Cas9^ΔNT1 promastigotes. In kind it is cell-based, Leishmania mexicana. The settings on record: L. mexicana Cas9^ΔNT1 promastigotes, 72 h + 48 h resazurin.
Excerpt: as §2, §3

For series [11], the system named is T. cruzi epimastigotes (CL Brener strain). As to the kind of experiment: In vitro inhibition of proliferation of T. cruzi epimastigotes. In kind it is cell-based, Trypanosoma cruzi. As to conditions: cell densities at the 5th day of proliferation, four independent experiments. On the procedure:
Trypomastigotes were obtained by infecting CHO-K1 cells. CHO-K1 cells were cultivated in RPMI-1640 medium supplemented with 10% heat-inactivated fetal calf serum (FCS), 0.15% (w/v) […], 100 µg mL^−1 penicillin and 130 µg mL^−1 streptomycin and incubated at 37 °C in a humidified atmosphere containing 5% CO2. CHO-K1 cells were initially incubated with metacyclic trypomastigotes obtained by in vitro differentiation of epimastigotes as previously described (multiplicity of infection: 50 parasites per cell) for 4 h. After washing out the non-internalized parasites, the cells were incubated overnight in RPMI medium supplemented with 10% FCS at 37 °C and then maintained at 33 °C in a humidified atmosphere containing 5% CO2 as previously reported. Infected cells were maintained at 33 °C in the presence of 10% FCS. Infected cell-derived trypomastigotes started to burst into the culture medium at the 5th day post-infection. Trypomastigotes collected at day 5 or 6 post infection were used for the viability assays.
The density of exponentially proliferating epimastigotes for each assay was adjusted to 2.0 × 10^6 parasites mL^−1, transferred into 96-well plates (200 μL/well) and incubated with different concentrations of the compounds 5-F-2′-deoxyuridine, 5-F-uracil, 5-F-uridine or benznidazole. A combination of 60 μM rotenone and 0.5 μM antimycin (RA) was used as a positive control for proliferation inhibition (positive control), as previously described. […] The epimastigote proliferation was measured as previously reported, by reading the optical density (OD) at 620 nm every 24 h for 9 days (which collects readings through the exponential and stationary phases). […] The half-maximal inhibitory concentrations (IC50) were determined during the exponential growth phase (fifth day) by adjusting a sigmoidal dose-response function to experimentally obtained data using GraphPad Prism 8. The compounds were assessed in quadruplicate in each experiment, and the results correspond to four independent experiments.

Series [12] addresses P2/TbAT1 aminopurine transporter. As to conditions: T. brucei P2; ref [16],[17]; cited from earlier work.
In series [13] the target is P1 transporter. The settings on record: T. brucei P1; ref [16],[17]; cited from earlier work.
Substrate in series [14]: Cc1cn([C@H]2C[C@H](O)[C@@H](CO)O2)c(=O)[nH]c1=O
Nature of the series: Transport of [^3H]-thymidine by TcrNT2 expressed in L. mexicana Cas9^ΔNT1 (Km, inhibition). In kind it is cell-based, Trypanosoma cruzi. The settings on record: other: TcrNT2 in L. mexicana Cas9^ΔNT1, […] [^3H]-thymidine, 5 min, n = 3. On the procedure:
as §1
Transport assays were conducted with radiolabeled nucleosides [methyl-^3H]-thymidine (20 Ci/mmol; PerkinElmer (Waltham, MA, USA)) and [2,8-^3H]-adenosine (40 Ci/mmol; American Radiolabeled Chemicals (ARC, St-Louis, MO, USA)). Cells were harvested from mid-log phase cultures by centrifugation and washed into an assay buffer (AB) as described, at a density of 1 × 10^8 cells mL^−1. Transport assays were then performed exactly as described previously, using an oil-stop protocol. […]
Michaelis-Menten constants (Km) were calculated by plotting transport rates of [^3H]-substrate against the concentration, using the Michaelis-Menten equation V0 = Vmax([substrate]/([substrate] + Km)) and non-linear regression in GraphPad Prism 8. Inhibition constants (Ki) were calculated using the Cheng-Prusoff equation: Ki = IC50/(1 + (L/Km)), where L represents the radiolabel concentration. […]

Consider `Nc1ncnc2c1ccn2[C@@H]1O[C@H](CO)[C@@H](O)[C@H]1O` [Tubercidin, tubercidin], for which the inhibitory constant (Ki) (usually the dissociation constant of the complex between target and ligand, obtained from inhibition or displacement) in series [1] is 852 ± 2 µM; in series [5], 700 ± 110 µM. Moreover, in series [1] (calculated from Km or Ki at 25 °C), the “ΔG° (Gibbs free energy of interaction)” value is -17.5 kJ/mol. The “δ(ΔG°) with respect to ΔG° of thymidine” value in series [1] (change in ΔG° relative to thymidine) was -20.0 kJ/mol. Further, the 50% effective concentration (EC50) – broadly, the midpoint of the concentration-response curve – was 1.02 ± 0.16 µM in series [2]; 0.34 µM in series [3] (T. cruzi in vitro, read-out: EC50 against T. cruzi in vitro); 0.43 ± 0.15 µM in [4] (Leishmania mexicana, 120 h); 25.7 ± 0.94 µM in series [6]; 0.82 ± 0.13 µM in series [7].
Consider `Nc1ncnc2c1ncn2[C@@H]1O[C@H](CO)[C@@H](O)[C@H]1O` [Adenosine], for which the Michaelis constant (Km) (usually the concentration of substrate that gives half-maximal velocity) in series [8] was 0.81 ± 0.16 µM. In addition, the Ki in [5] was 1560 ± 60 µM. Also, the “ΔG° (Gibbs free energy of interaction)” value in series [5] (from cited Ki) was -15.8 kJ/mol.
`O=c1[nH]cc(F)c(=O)[nH]1` [5-F-uracil]: the “EC50 (µM) AVG ± SEM, L. mexicana Cas9^ΔNT1+TcrNT2” value in series [9] is on record as “poorly active”. Further, the “EC50 (µM) AVG ± SEM, L. mexicana Cas9^ΔNT1” value in [10] is listed as “poorly active”. For the same molecule, the IC50 (as a rule, the point on the concentration scale where inhibition reaches its midpoint) in series [11] worked out at 25.9 ± 0.01 µM. Also, in series [4], the “EC50 (µM) AVG ± SEM, Cas9” value is given as “poorly active”.
Consider `Nc1ncnc2c1c(-c1ccc(Cl)c(Cl)c1)cn2[C@@H]1O[C@H](CO)[C@@H](O)[C@H]1O` [FH3147, 7-(3,4-dichlorophenyl)-tubercidin], for which the EC50 in [2] is 8.41 ± 1.61 µM; in series [3] (intracellular amastigotes, read-out: EC50 against intracellular T. cruzi amastigotes), 0.19 µM; in series [6] it was greater than 100 µM; in [7] it was 13.7 ± 1.25 µM. Further, the “RF vs. Cas9 (resistance factor)” value in series [6] (EC50 Cas9^ΔNT1 relative to Cas9) is on record as greater than 11.8.
On to `O=c1[nH]c(=O)n([C@@H]2O[C@H](CO)[C@@H](O)[C@H]2O)cc1F` [5-F-uridine], for which the concentration giving a half-maximal response (EC50) was greater than 500 µM in series [9] (read-out: EC50 (µM) AVG ± SEM, L. mexicana Cas9^ΔNT1+TcrNT2); greater than 500 µM in series [10] (read-out: EC50 (µM) AVG ± SEM, L. mexicana Cas9^ΔNT1); greater than 500 µM in series [4]. Further, the half-inhibitory concentration (IC50) in series [11] was greater than 500 µM.
For `Nc1ncnc2c1c(-c1ccccn1)cn2[C@@H]1O[C@H](CO)[C@@H](O)[C@H]1O` [7-(2-pyridyl)-tubercidin], the inhibitory constant (Ki) in [12] and in series [13] was less than 5 µM each time.

B1: TcrNT2 (Trypanosoma cruzi strain CL Brener) (protein)
chain: MGLGFEFWGEAYSYAAAIMCGLSMLLPINAIFSAPLYIMNYYQYVMHDPNAVAKHKNFWDNALTYYSMLIMLVALIVEPLTLSEAFRRIPIRLRMLSALSMFWLEIIILMSVPAAGSTEAGAISAIVCASFSSALGKSVFESTAYGLFGVFPSRFNTALMGGVGVAGALASILQLIVKASLPQDYSGIRTQSKIYYGLMAGIHGITFIMVVGLHWVPFAQRYINALSGGTSSPASNNPDQAAESETEAASKANEKSAPKATNGGDDNADSGRLVNTNVIFVLKCVYPMLSACGFNFFITLFLFPTIVVSVDPDDYWYGTVAVCIFNVCDVCGRFSPSLKCLWPPRWVVLVGSFSRVVFVPLLILASYHYIPSHAYNYVMMVIFGLSNGYIGALAITLGPLTRNLETSGQRFVAGTMFGISILIGGTIGSALSILVQTLRG
For B1, the Km stood at 0.263 µM in series [14] and 0.26 ± 0.05 µM in series [14] ([…]).
